From ChEMBL document CHEMBL1149262, “Monoamine transporter binding, locomotor activity, and drug discrimination properties of 3-(4-substituted-phenyl)tropane-2-carboxylic acid methyl ester isomers” (J Med Chem, 2004)
Activity calls are given as the source filed them. The rule behind the calls is not given here.

Tests used:
[1] = system: Mus musculus; test: Locomotor activity in CD1 mouse assessed as stimulation at 0.3 mg/kg, ip after 1 hr relative to control; assay type: functional; details: route intraperitoneal
[2] = system: Mus musculus; test: Locomotor activity in CD1 mouse assessed as stimulation at 0.03 mg/kg, ip after 1 hr relative to control; assay type: functional; details: route intraperitoneal
[3] = system: Rattus norvegicus; test: Drug discrimination effect in CD Albino rat assessed as percent of rat choosing cocaine lever at 0.3 mg/kg, ip; assay type: functional; details: route intraperitoneal
[4] = system: Mus musculus; test: Locomotor activity in CD1 mouse assessed as stimulation at 0.03 mg/kg, ip after 2 hrs relative to control; assay type: functional; details: route intraperitoneal
[5] = system: Mus musculus; test: Locomotor activity in CD1 mouse assessed as stimulation at 1 mg/kg, ip after 1 hr relative to control; assay type: functional; details: route intraperitoneal
[6] = system: Mus musculus; test: Locomotor activity in CD1 mouse assessed as stimulation at 0.1 mg/kg, ip after 3 hrs relative to control; assay type: functional; details: route intraperitoneal
[7] = system: Mus musculus; test: Locomotor activity in CD1 mouse assessed as stimulation at 1 mg/kg, ip after 4 hrs relative to control; assay type: functional; details: route intraperitoneal
[8] = system: Rattus norvegicus; test: Cocaine discrimination in ip dosed CD Albino rat; assay type: functional
[9] = biological target: Sodium-dependent serotonin transporter (Homo sapiens, UniProt P31645)
Sodium-dependent serotonin transporter, sequence (P31645 whole entry): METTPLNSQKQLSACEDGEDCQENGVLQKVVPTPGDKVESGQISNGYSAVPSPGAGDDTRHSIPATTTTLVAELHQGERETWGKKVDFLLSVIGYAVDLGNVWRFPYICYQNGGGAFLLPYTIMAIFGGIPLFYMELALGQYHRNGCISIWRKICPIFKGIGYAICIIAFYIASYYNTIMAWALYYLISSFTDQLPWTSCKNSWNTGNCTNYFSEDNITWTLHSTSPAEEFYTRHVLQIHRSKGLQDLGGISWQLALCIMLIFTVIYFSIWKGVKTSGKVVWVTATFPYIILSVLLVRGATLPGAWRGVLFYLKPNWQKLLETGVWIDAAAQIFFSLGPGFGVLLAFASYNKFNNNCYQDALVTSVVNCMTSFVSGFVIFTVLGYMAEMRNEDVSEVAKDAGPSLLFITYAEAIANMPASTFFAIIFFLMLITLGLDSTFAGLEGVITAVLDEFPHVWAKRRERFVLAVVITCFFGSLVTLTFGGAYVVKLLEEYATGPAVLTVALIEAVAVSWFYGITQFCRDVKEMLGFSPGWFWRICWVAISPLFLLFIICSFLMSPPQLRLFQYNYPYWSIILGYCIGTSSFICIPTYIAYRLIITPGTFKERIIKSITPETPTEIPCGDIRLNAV
Description: Displacement of [3H]paroxetine from 5HTT

[10] = system: Mus musculus; test: Locomotor activity in CD1 mouse assessed as stimulation at 0.1 mg/kg, ip after 1 hr relative to control; assay type: functional; details: route intraperitoneal
[11] = system: Mus musculus; test: Locomotor activity in CD1 mouse assessed as stimulation at 0.1 mg/kg, ip after 4 hrs relative to control; assay type: functional; details: route intraperitoneal
[12] = system: Mus musculus; test: Locomotor activity in CD1 mouse assessed as stimulation at 0.1 mg/kg, ip after 2 hrs relative to control; assay type: functional; details: route intraperitoneal
[13] = system: Mus musculus; test: Locomotor activity in CD1 mouse assessed as stimulation at 0.3 mg/kg, ip after 2 hrs relative to control; assay type: functional; details: route intraperitoneal
[14] = system: Mus musculus; test: Locomotor activity in ip dosed CD1 mouse in peak hour; assay type: functional
[15] = system: Rattus norvegicus; test: Drug discrimination effect in CD Albino rat assessed as percent of rat choosing cocaine lever at 0.17 mg/kg, ip; assay type: functional; details: route intraperitoneal
[16] = system: Mus musculus; test: Activity in CD1 mouse assessed as stereotypy at 100 mg/kg, ip after 4 hrs; assay type: functional, organism-based; design: dose 100 mg/kg
[17] = system: Rattus norvegicus; test: Drug discrimination effect in CD Albino rat assessed as percent of rat choosing cocaine lever at 0.1 mg/kg, ip; assay type: functional; details: route intraperitoneal
[18] = system: Mus musculus; test: Activity in CD1 mouse assessed as stereotypy at 10 mg/kg, ip after 4 hrs; assay type: functional, organism-based; design: dose 10 mg/kg
[19] = system: Mus musculus; test: Activity in CD1 mouse assessed as hyperactivity at 1 mg/kg, ip after 4 hrs; assay type: functional, organism-based; design: dose 1 mg/kg
[20] = system: Mus musculus; test: Locomotor activity in CD1 mouse assessed as stimulation at 0.03 mg/kg, ip after 3 hrs relative to control; assay type: functional; details: route intraperitoneal
[21] = system: Mus musculus; test: Locomotor activity in CD1 mouse assessed as stimulation at 0.03 mg/kg, ip after 4 hrs relative to control; assay type: functional; details: route intraperitoneal
[22] = system: Mus musculus; test: Activity in CD1 mouse assessed as circling at 10 mg/kg, ip after 4 hrs; assay type: functional, organism-based; design: dose 10 mg/kg
[23] = system: Mus musculus; test: Activity in CD1 mouse assessed as stereotypy at 1 mg/kg, ip after 4 hrs; assay type: functional, organism-based; design: dose 1 mg/kg
[24] = system: Mus musculus; test: Locomotor activity in CD1 mouse assessed as stimulation at 0.3 mg/kg, ip after 4 hrs relative to control; assay type: functional; details: route intraperitoneal
[25] = system: Mus musculus; test: Locomotor activity in CD1 mouse assessed as stimulation at 1 mg/kg, ip after 3 hrs relative to control; assay type: functional; details: route intraperitoneal
[26] = system: Mus musculus; test: Locomotor activity in CD1 mouse assessed as stimulation at 0.3 mg/kg, ip after 3 hrs relative to control; assay type: functional; details: route intraperitoneal
[27] = system: Mus musculus; test: Locomotor activity in CD1 mouse assessed as stimulation at 1 mg/kg, ip after 2 hrs relative to control; assay type: functional; details: route intraperitoneal
[28] = system: Mus musculus; test: Activity in CD1 mouse assessed as circling at 100 mg/kg, ip after 4 hrs; assay type: functional, organism-based; design: dose 100 mg/kg
[29] = biological target: Sodium-dependent dopamine transporter (Homo sapiens, UniProt Q01959); test: Displacement of [3H]WIN-35428 from DAT
Sodium-dependent dopamine transporter, sequence (Q01959 whole entry): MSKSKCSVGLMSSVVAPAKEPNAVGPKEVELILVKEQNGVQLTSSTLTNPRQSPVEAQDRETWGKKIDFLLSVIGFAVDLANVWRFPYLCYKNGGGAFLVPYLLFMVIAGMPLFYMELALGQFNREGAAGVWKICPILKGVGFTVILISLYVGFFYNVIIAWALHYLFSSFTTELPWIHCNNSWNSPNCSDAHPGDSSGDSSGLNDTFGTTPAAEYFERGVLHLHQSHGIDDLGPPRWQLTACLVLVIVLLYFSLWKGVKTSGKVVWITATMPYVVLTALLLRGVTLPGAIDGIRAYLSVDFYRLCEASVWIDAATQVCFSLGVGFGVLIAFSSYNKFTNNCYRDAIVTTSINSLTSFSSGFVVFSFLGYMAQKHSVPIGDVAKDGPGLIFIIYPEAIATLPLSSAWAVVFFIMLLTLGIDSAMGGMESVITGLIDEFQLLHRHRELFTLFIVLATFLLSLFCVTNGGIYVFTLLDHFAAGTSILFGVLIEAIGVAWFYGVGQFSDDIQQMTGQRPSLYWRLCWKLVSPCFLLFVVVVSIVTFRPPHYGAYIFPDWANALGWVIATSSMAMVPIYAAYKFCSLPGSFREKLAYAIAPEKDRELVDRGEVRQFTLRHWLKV

Which results are given for COC(=O)[C@@H]1C2CCC(C[C@@H]1c1ccc(Br)cc1)N2C (stereo not given in full)?
Activity [1]: 259%; Activity [2]: -30%; Activity [3]: 100%; Activity [4]: -39%; Activity [5]: 258%; Activity [6]: 81%; Activity [7]: 656%; ED50 [8]: 0.17 mg/kg; IC50 [9]: 10.6 nM; Ki [9]: 0.96 nM; Activity [10]: -38%; Activity [11]: 116%; Activity [12]: 29%; Activity [13]: 598%; ED50 [14]: 0.1 mg/kg; Activity [15]: 50%; Activity [16]: Active; Activity [17]: 14%; Activity [18]: Active; Activity [19]: Active; Activity [20]: 9%; Activity [21]: -43%; Activity [22]: Active; Activity [23]: Active; Activity [24]: 834%; Activity [25]: 302%; Activity [26]: 869%; Activity [27]: 35%; Activity [28]: Active; IC50 [29]: 1.7 nM
